Results published in ChEMBL document CHEMBL5346905, “2,6-diazaspiro[3.4]octan-7-one derivatives as potent sigma-1 receptor antagonists that enhanced the antinociceptive effect of morphine and rescued morphine tolerance” (Eur J Med Chem, 2023).
pIC50, pKi: −log10 of the molar value. Values belong to the molecule of their own block, whether it stands above or below them. The source made the active and inactive calls. No cut-off for these calls is given here.

How the values were obtained:
[1] = molecular target: T1, Sigma non-opioid intracellular receptor 1 (Cavia porcellus, UniProt Q60492); experiment: Displacement of [3H]-pentazocine from sigma1 receptor in guinea pig brain membrane at 1 uM by liquid scintillation counting analysis relative to control; format: cell membranes
T1 sequence (Q60492 whole entry): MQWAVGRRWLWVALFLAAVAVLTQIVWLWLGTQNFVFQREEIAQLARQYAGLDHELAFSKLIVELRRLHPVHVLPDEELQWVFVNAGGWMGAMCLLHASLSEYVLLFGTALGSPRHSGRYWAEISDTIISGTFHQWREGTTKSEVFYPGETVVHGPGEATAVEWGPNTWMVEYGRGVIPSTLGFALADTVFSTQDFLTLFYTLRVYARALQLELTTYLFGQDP

Mus musculus [2] = experiment: Synergistic antinociceptive activity in C57BL/6J mouse assessed as reduction in morphine-induced nociceptive response upto 60 mg/kg, ip pre-administered with compound followed by morphine addition measured after 30 mins by hot plate test; format: functional, organism-based
Mus musculus [3] = experiment: Antinociceptive activity in C57BL/6J mouse assessed as reduction in morphine-induced nociceptive response by measuring morphine ED50 at 30 mg/kg, ip pre-administered with compound followed by morphine addition measured after 30 mins by hot plate test (reference value: 4.3 mg/kg); format: functional
Mus musculus [4] = experiment: Reversal of morphine tolerance in morphine tolerant C57BL/6J mouse assessed as maximum possible effect of antinociception at 30 mg/kg, ip pre-treated with morphine followed by compound addition on day 4 by hot plate test (reference value: 5.4%); format: functional
[5] = molecular target: T1, Sigma non-opioid intracellular receptor 1; experiment: Displacement of [3H]-pentazocine from sigma1 receptor in guinea pig brain membrane assessed as inhibition constant in presence of phenytoin by liquid scintillation counting analysis; format: cell membranes
[6] = molecular target: Sigma non-opioid intracellular receptor 1 (Homo sapiens, UniProt Q99720); experiment: Antagonist activity at sigma1 receptor (unknown origin)
Chain of Sigma non-opioid intracellular receptor 1 (Homo sapiens, UniProt Q99720) (Q99720 whole entry): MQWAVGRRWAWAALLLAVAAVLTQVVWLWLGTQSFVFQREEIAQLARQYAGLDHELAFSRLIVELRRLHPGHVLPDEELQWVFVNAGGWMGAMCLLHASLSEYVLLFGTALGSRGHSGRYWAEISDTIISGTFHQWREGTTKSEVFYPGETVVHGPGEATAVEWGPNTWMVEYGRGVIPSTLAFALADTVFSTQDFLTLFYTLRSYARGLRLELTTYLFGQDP

[7] = molecular target: Sigma intracellular receptor 2 (Homo sapiens, UniProt Q5BJF2); experiment: Antagonist activity at sigma2 receptor (unknown origin)
Chain of Sigma intracellular receptor 2 (Q5BJF2 whole entry): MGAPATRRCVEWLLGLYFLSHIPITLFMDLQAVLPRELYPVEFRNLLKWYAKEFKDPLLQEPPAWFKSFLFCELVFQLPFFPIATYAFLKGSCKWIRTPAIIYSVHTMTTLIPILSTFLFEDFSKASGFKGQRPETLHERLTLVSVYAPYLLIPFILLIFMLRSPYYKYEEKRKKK

[8] = Tmax in C57BL/6J mouse at 10 mg/kg, ip measured after 24 hrs by LC-MS/MS analysis; format: ADME, organism-based; details: in vivo
[9] = Cmax in C57BL/6J mouse at 10 mg/kg, ip measured after 24 hrs by LC-MS/MS analysis; format: ADME, organism-based; set-up: time 24 hrs, dose 10 mg/kg, route ip; details: in vivo
[10] = AUClast in C57BL/6J mouse at 10 mg/kg, ip measured after 24 hrs by LC-MS/MS analysis; format: ADME, organism-based; set-up: time 24 hrs, dose 10 mg/kg, route ip; details: in vivo
[11] = Observed AUC(0 to infinity) in C57BL/6J mouse at 10 mg/kg, ip measured after 24 hrs by LC-MS/MS analysis; format: ADME, organism-based; set-up: time 24 hrs, dose 10 mg/kg, route ip; details: in vivo
[12] = Observed MRT(0 to infinity) in C57BL/6J mouse at 10 mg/kg, ip measured after 24 hrs by LC-MS/MS analysis; format: ADME, organism-based; details: in vivo
[13] = Half life in C57BL/6J mouse at 10 mg/kg, ip measured after 24 hrs by LC-MS/MS analysis; format: ADME, organism-based; details: in vivo
[14] = Drug concentration in brain of C57BL/6J mouse at 10 mg/kg, ip measured after 1 hrs by LC-MS/MS analysis; format: ADME, organism-based; details: read-out: Drug uptake
[15] = Drug concentration in plasma of C57BL/6J mouse at 10 mg/kg, ip measured after 1 hrs by LC-MS/MS analysis; format: ADME, organism-based
[16] = Drug concentration in brain of C57BL/6J mouse at 10 mg/kg, ip measured after 4 hrs by LC-MS/MS analysis; format: ADME, organism-based; details: read-out: Drug uptake
[17] = Drug concentration in plasma of C57BL/6J mouse at 10 mg/kg, ip measured after 4 hrs by LC-MS/MS analysis; format: ADME, organism-based
[18] = Ratio of drug concentration in brain to plasma in C57BL/6J mouse at 10 mg/kg, ip measured after 1 hrs by LC-MS/MS analysis; format: ADME, organism-based; details: read-out: BPR
[19] = Ratio of drug concentration in brain to plasma in C57BL/6J mouse at 10 mg/kg, ip measured after 4 hrs by LC-MS/MS analysis; format: ADME, organism-based; details: read-out: BPR
Mus musculus [20] = experiment: Antinociceptive activity in ip dosed C57BL/6J mouse assessed as reduction in morphine-induced nociceptive response pre-administered with compound followed by morphine addition measured after 30 mins by hot plate test; format: functional, organism-based; details: dose 0-60 mg/kg
[21] = molecular target: Mu-type opioid receptor (Homo sapiens) (UniProt P35372); experiment: Displacement of [3H]-DAMGO from human MOR expressed in CHO cells at 1 uM incubated for 90 mins by beta-scintillation counting analysis; format: cell-based
Chain of Mu-type opioid receptor (Homo sapiens) (P35372 whole entry): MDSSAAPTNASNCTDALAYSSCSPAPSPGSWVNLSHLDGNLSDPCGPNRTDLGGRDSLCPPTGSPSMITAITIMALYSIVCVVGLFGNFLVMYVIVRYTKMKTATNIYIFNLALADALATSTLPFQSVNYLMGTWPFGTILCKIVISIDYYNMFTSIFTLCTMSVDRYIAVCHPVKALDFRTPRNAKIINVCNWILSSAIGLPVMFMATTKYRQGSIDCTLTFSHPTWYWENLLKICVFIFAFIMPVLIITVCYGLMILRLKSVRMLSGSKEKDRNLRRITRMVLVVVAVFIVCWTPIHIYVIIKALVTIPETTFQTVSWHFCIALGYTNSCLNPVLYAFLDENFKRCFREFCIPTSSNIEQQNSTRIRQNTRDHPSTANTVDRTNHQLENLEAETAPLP

Mus musculus [22] = experiment: Antinociceptive activity in C57BL/6J mouse assessed as reduction in nociceptive response at 30 mg/kg, ip measured after 30 mins by hot plate test; format: functional, organism-based
Mus musculus [23] = experiment: Synergistic antinociceptive activity in C57BL/6J mouse assessed as reduction in morphine-induced nociceptive response at 30 mg/kg, ip pre-administered with compound followed by morphine addition measured after 30 mins in presence of naloxone by hot plate test; format: functional, organism-based
Mus musculus [24] = experiment: Synergistic antinociceptive activity in C57BL/6J mouse assessed as reduction in morphine-induced nociceptive response at 30 mg/kg, ip pre-administered with compound followed by morphine addition measured after 30 mins in presence of PRE-084 by hot plate test; format: functional, organism-based
Mus musculus [25] = experiment: Reversal of morphine tolerance in morphine tolerant C57BL/6J mouse assessed as maximum possible effect of antinociception at 30 mg/kg, ip pre-treated with morphine followed by compound addition on day 4 in presence of PRE-084 by hot plate test; format: functional, organism-based

pKi [1]: 7.32
SMILES: Cc1cccc(CCN2CC3(CC(=O)N(c4ccc(F)cc4)C3)C2)c1

pKi [1]: 7.30
SMILES: Cc1cccc(N2CC3(CC2=O)CN(CCCc2ccccc2)C3)c1

pKi [1]: 6.74
SMILES: CC(Cc1ccccc1)N1CC2(CC(=O)N(c3ccc(F)cc3)C2)C1 (stereo not given)

pKi [1]: 7.84
pKi [5]: 7.43
pIC50 [6]: 7.72
pIC50 [7]: 6.64
Tmax [8]: 15 min
Cmax [9]: 990 ng/mL
AUC(0-t) at 24 h [10]: 2240 ng·h/mL
AUC(0-inf) [11]: 2290 ng·h/mL
MRT inf [12]: 2.08 h
half-life [13]: 85.2 min
concentration at 1 h [14]: 3790 ng/g
concentration at 1 h [15]: 513 ng/mL
concentration at 4 h [16]: 609 ng/g
concentration at 4 h [17]: 78 ng/mL
Kp at 1 h [18]: 7.38
Kp at 4 h [19]: 7.8
Activity [21]: 16.5%
SMILES: Cc1ccc(CCCN2CC3(CC(=O)N(c4ccccc4)C3)C2)cc1
Activity (Mus musculus [20]): Dose-Dependent Effect
Activity (Mus musculus [22]): inactive
ED50 (Mus musculus [3]; 0.5 h): 2.3 mg/kg
MPE (Mus musculus [4]): 70.5%
Activity (Mus musculus [23]): inactive
Activity (Mus musculus [24]): inactive
Activity (Mus musculus [25]): inactive

pKi [1]: 7.31
SMILES: O=C1CC2(CN(CCCc3ccccc3)C2)CN1c1ccccc1

pKi [1]: 7.48
SMILES: Cc1cccc(CCCN2CC3(CC(=O)N(c4ccccc4)C3)C2)c1

pKi [1]: 6.41
SMILES: O=C1CC2(CN(CCc3cccc(F)c3)C2)CN1c1ccccc1

pKi [1]: 7.17
SMILES: Cc1ccc(N2CC3(CC2=O)CN(CCCc2ccccc2)C3)cc1

pKi [1]: 7.57
SMILES: O=C1CC2(CN(CCCc3cccc(F)c3)C2)CN1c1ccccc1

pKi [1]: 7.46
SMILES: O=C1CC2(CN(CCCc3ccccc3)C2)CN1c1ccc(F)cc1

pKi [1]: 7.77
SMILES: O=C1CC2(CN(CCCc3ccc(F)cc3)C2)CN1c1ccccc1

Second part, the molecule before the results:

SMILES: O=C1CC2(CN(CCCc3ccccc3F)C2)CN1c1ccccc1
pKi [1]: 7.35

SMILES: O=C1CC2(CN(CCC3CCCCC3)C2)CN1c1ccccc1
pKi [1]: 7.37

SMILES: CC(Cc1ccccc1)N1CC2(CC(=O)N(c3ccccc3)C2)C1 (stereo not given)
pKi [1]: 7.39

SMILES: Cc1cc(OCCN2CCOCC2)nn1-c1ccc2ccccc2c1
Activity (Mus musculus [2]): inactive
pKi [1]: 7.89
Activity (Mus musculus [3]): inactive
Activity (Mus musculus [4]): inactive

SMILES: O=C1CC2(CN(CCc3ccc4ccccc4c3)C2)CN1c1ccccc1
pKi [1]: 7.22

SMILES: O=C1CC2(CN(CCCc3ccccc3)C2)CN1Cc1ccccc1
pKi [1]: 7.08

SMILES: O=C1CC2(CN(CCC3CCCCC3)C2)CN1c1ccc(F)cc1
pKi [1]: 7.41

SMILES: O=C1CC2(CN(CCc3ccccc3)C2)CN1c1ccccc1
pKi [1]: 6.76
